Data published in PubChem BioAssay AID1919005 (Molecular Pharmacology Branch, DTP, NCI, 2023).

Tested on: 855422-203-R-J1-PDC complex spheroid growth
Test: Anticancer human tumor 855422-203-R-J1-PDC patient-derived bladder carcinoma cell line growth inhibition [AhR]
Details: for IC50: curve of first compound; for viability, T/C: stronger effect = lower value; active means viability on the fitted dose curve at most 10% of control; inactive means the rest
Summary of the method: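 Complex tumor spheroids co-cultured with HUVEC and human MSC stroma; AhR antagonists tested in combination with standard-of-care and investigational agents. Top concentration at or near clinical Cmax (else 10 microM), half-log dilutions; growth expressed as percent test/control.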

[1] = second compound 0.1 µM, first compound 0.0316 µM
[2] = second compound 0.1 µM, first compound 0.1 µM
[3] = second compound 0.1 µM, first compound 0.316 µM
[4] = second compound 0.1 µM, first compound 1 µM
[5] = second compound 0.1 µM, first compound 3.16 µM
[6] = second compound 0.1 µM, first compound 10 µM
[7] = second compound 0.316 µM, first compound 0.0316 µM
[8] = second compound 0.316 µM, first compound 0.1 µM
[9] = second compound 0.316 µM, first compound 0.316 µM
[10] = second compound 0.316 µM, first compound 1 µM
[11] = second compound 0.316 µM, first compound 3.16 µM
[12] = second compound 0.316 µM, first compound 10 µM
[13] = second compound 1 µM, first compound 0.0316 µM
[14] = second compound 1 µM, first compound 0.1 µM
[15] = second compound 1 µM, first compound 0.316 µM
[16] = second compound 1 µM, first compound 1 µM
[17] = second compound 1 µM, first compound 3.16 µM
[18] = second compound 1 µM, first compound 10 µM
[19] = second compound 3.16 µM, first compound 0.0316 µM
[20] = second compound 3.16 µM, first compound 0.1 µM
[21] = second compound 3.16 µM, first compound 0.316 µM
[22] = second compound 3.16 µM, first compound 1 µM
[23] = second compound 3.16 µM, first compound 3.16 µM
[24] = second compound 3.16 µM, first compound 10 µM
[25] = second compound 10 µM, first compound 0.0316 µM
[26] = second compound 10 µM, first compound 0.1 µM
[27] = second compound 10 µM, first compound 0.316 µM
[28] = second compound 10 µM, first compound 1 µM
[29] = second compound 10 µM, first compound 3.16 µM
[30] = second compound 10 µM, first compound 10 µM
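Further: spheroids exposed to agents for seven days before readout.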
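Wherever viability, T/C is given: percent of DMSO vehicle control luminescence viability.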

CC(C)c1c(-c2ccccc2)nc2c(C#N)c[nH]n2c1=O + Cc1ccccc1N=Nc1ccc(NC(=O)c2ccnn2C)c(C)c1
> 10000 nM: IC50 (second compound 0.1 µM) | IC50 (second compound 0.316 µM) | IC50 (second compound 1 µM) | IC50 (second compound 3.16 µM) | IC50 (second compound 10 µM)
inactive: viability, T/C [1] 98.4% | viability, T/C [2] 105% | viability, T/C [3] 94.5% | viability, T/C [4] 92.9% | viability, T/C [5] 89.5% | viability, T/C [6] 89% | viability, T/C [7] 106% | viability, T/C [8] 99% | viability, T/C [9] 96.9% | viability, T/C [10] 104% | viability, T/C [11] 91.2% | viability, T/C [12] 93% | viability, T/C [13] 95.8% | viability, T/C [14] 103% | viability, T/C [15] 96.5% | viability, T/C [16] 101% | viability, T/C [17] 91.4% | viability, T/C [18] 90.5% | viability, T/C [19] 94.4% | viability, T/C [20] 93.7% | viability, T/C [21] 89.7% | viability, T/C [22] 88.7% | viability, T/C [23] 89.5% | viability, T/C [24] 82.1% | viability, T/C [25] 81.8% | viability, T/C [26] 83.6% | viability, T/C [27] 76.9% | viability, T/C [28] 86% | viability, T/C [29] 76.5% | viability, T/C [30] 73.6%

COc1cc(C2c3cc4c(cc3C(OC3OC5COC(C)OC5C(O)C3O)C3COC(=O)C23)OCO4)cc(OC)c1O (stereo not given) + Cc1cncc(-c2nc(NCCc3c[nH]c4ccccc34)c3ncn(C(C)C)c3n2)c1
active: viability, T/C [5] 9.41% | viability, T/C [6] 3.49% | viability, T/C [10] 15% | viability, T/C [11] 8.46% | viability, T/C [12] 3.99% | viability, T/C [17] 8.33% | viability, T/C [18] 6.08% | viability, T/C [22] 13.2% | viability, T/C [23] 6.72% | viability, T/C [24] 4.03% | viability, T/C [26] 11.7% | viability, T/C [27] 1.25% | viability, T/C [28] 0.55% | viability, T/C [29] 1.09% | viability, T/C [30] 2.98%
< 31.6 nM: IC50 (second compound 10 µM)
173 nM: IC50 (second compound 3.16 µM)
inactive: viability, T/C [1] 85.9% | viability, T/C [2] 85.5% | viability, T/C [3] 55.4% | viability, T/C [4] 14.8% | viability, T/C [7] 88.4% | viability, T/C [8] 83.7% | viability, T/C [9] 30.2% | viability, T/C [13] 83.8% | viability, T/C [14] 79.7% | viability, T/C [15] 32.5% | viability, T/C [16] 14.4% | viability, T/C [19] 76.8% | viability, T/C [20] 73.7% | viability, T/C [21] 24.4% | viability, T/C [25] 9.82%
372 nM: IC50 (second compound 0.1 µM)
207 nM: IC50 (second compound 0.316 µM) | IC50 (second compound 1 µM)

COc1cccc2c1C(=O)c1c(O)c3c(c(O)c1C2=O)CC(O)(C(=O)CO)CC3OC1CC(N)C(O)C(C)O1 (stereo not given) + Cc1cncc(-c2nc(NCCc3c[nH]c4ccccc34)c3ncn(C(C)C)c3n2)c1
< 31.6 nM: IC50 (second compound 0.1 µM) | IC50 (second compound 0.316 µM) | IC50 (second compound 1 µM) | IC50 (second compound 3.16 µM) | IC50 (second compound 10 µM)
inactive: viability, T/C [1] 19.5% | viability, T/C [2] 15.4% | viability, T/C [7] 22.4% | viability, T/C [8] 13.7% | viability, T/C [13] 17.8% | viability, T/C [14] 10.3% | viability, T/C [19] 17.9%
active: viability, T/C [3] 2.05% | viability, T/C [4] 0.85% | viability, T/C [5] 1.02% | viability, T/C [6] 1.75% | viability, T/C [9] 1.65% | viability, T/C [10] 0.73% | viability, T/C [11] 0.93% | viability, T/C [12] 1.37% | viability, T/C [15] 4.93% | viability, T/C [16] 4.6% | viability, T/C [17] 0.74% | viability, T/C [18] 1.14% | viability, T/C [20] 7.51% | viability, T/C [21] 2.13% | viability, T/C [22] 1.95% | viability, T/C [23] 1.19% | viability, T/C [24] 0.94% | viability, T/C [25] 4.02% | viability, T/C [26] 1.33% | viability, T/C [27] 0.55% | viability, T/C [28] 0.22% | viability, T/C [29] 0.28% | viability, T/C [30] 0.3%

Nc1ncn(C2CC(O)C(CO)O2)c(=O)n1 (stereo not given) + Cc1cncc(-c2nc(NCCc3c[nH]c4ccccc34)c3ncn(C(C)C)c3n2)c1
inactive: viability, T/C (second compound 0.1 µM, first compound 0.00316 µM) 99.1% | viability, T/C (second compound 0.1 µM, first compound 0.01 µM) 94.1% | viability, T/C [1] 88.8% | viability, T/C [2] 86.2% | viability, T/C [3] 82% | viability, T/C [4] 77.5% | viability, T/C (second compound 0.316 µM, first compound 0.00316 µM) 86.8% | viability, T/C (second compound 0.316 µM, first compound 0.01 µM) 88.5% | viability, T/C [7] 81.9% | viability, T/C [8] 79.8% | viability, T/C [9] 82.5% | viability, T/C [10] 75% | viability, T/C (second compound 1 µM, first compound 0.00316 µM) 91.9% | viability, T/C (second compound 1 µM, first compound 0.01 µM) 90% | viability, T/C [13] 85.5% | viability, T/C [14] 86.4% | viability, T/C [15] 82.4% | viability, T/C [16] 74.6% | viability, T/C (second compound 3.16 µM, first compound 0.00316 µM) 79.9% | viability, T/C (second compound 3.16 µM, first compound 0.01 µM) 86.5% | viability, T/C [19] 79.3% | viability, T/C [20] 71.4% | viability, T/C [21] 82% | viability, T/C [22] 69% | viability, T/C (second compound 10 µM, first compound 0.00316 µM) 10.8%
active: viability, T/C (second compound 10 µM, first compound 0.01 µM) 6.45% | viability, T/C [25] 2.54% | viability, T/C [26] 7.37% | viability, T/C [27] 9.7% | viability, T/C [28] 7.88%
< 3.16 nM: IC50 (second compound 10 µM)
> 1000 nM: IC50 (second compound 0.1 µM) | IC50 (second compound 0.316 µM) | IC50 (second compound 1 µM) | IC50 (second compound 3.16 µM)
